Consider two substances from publication PMC9561422 (Clinical and Translational Medicine, 2022).

The nature of one series: liver homogenate. The conditions noted are these: C57BL/6 mice.
A further series can be described thus: muscle homogenate. The conditions noted are these: C57BL/6 mice.
The nature of another series: kidney homogenate. To be noted: C57BL/6 mice.
A further series in a line: faeces homogenate. The conditions noted are these: C57BL/6 mice.
Series [1] can be described thus: colon homogenate (incl. caecum). To be noted: C57BL/6 mice.
For series [2] the following is noted: germ-free mice inoculated with genetically modified E. coli continuously producing iAM373. An excerpt:
(§1) Data are means ± SEM. […] (D–F) Data are means ± SEM. *p < .05; **p < .01; ***p < .001; two‐tailed Welch's t‐test. […] The exponent is read as -7; the minus sign and the digit are not certain. / Panel A: no compound label is printed beside the value. 'QSP' comes from the y-axis title of the same panel.

The next series relates to human myotubes. To be noted: MTT dose-response curve. The method, then:
(§2) Initially, MTT concentration‐response experiments in murine and human myoblasts as well as in myotubes were performed.
(§3) The 95% confidence interval of this curve is shown as grey area. IC10 is shown as a red vertical line.

The test system of the next series is C2C12 myotubes. The conditions noted are these: Murine myotubes, MTT dose-response curve. The method, then: as §2, §3, §1
The subject of a further series is C2C12 myoblasts. The conditions noted are these: Murine myoblasts, MTT dose-response curve. The method, then: as §2
(§4) Supplementary Figure 1. […] A) C2C12 myoblasts; B) human myoblasts. The x-axis indicates the different QSP concentrations, while the y-axis represents MTT reduction relative to placebo (placebo = 1.0). Squares (+ error bars) are means (+ SEM) of n=8-10 for each concentration, with the curve representing the best fitting 3-parameter logistic model around the means. The 95% confidence interval of this curve is shown as grey area. IC10 is shown as a red vertical line.

The test system of a further series is human myoblasts. The method, then: as §2, §4
The conditions of series [3]: ex vivo. How it is done: The powdered medium is dissolved in 900 mL water while stirring. To this solution, 0.3790 g CaCl2×2H2O and 2.098 g NaHCO3 are subsequently added while stirring. NaOH or HCl was used to adjust to pH 7.4. This solution is then further diluted to 1000 mL using ultrapure water.
The blood was collected in a 1.5 mL Eppendorf tube after decapitating the mouse. The blood of the 4 mice was pooled and centrifuged for 10 min at 1000 g at 5 °C. The supernatant (serum) was transferred to a 500 µL Eppendorf and was immediately frozen and stored at -35 °C.
The liver (5.0070 g) was collected from four C57BL/6 mice after cervical dislocation. After cleaning and rinsing the organ using ice-cold KH buffer, the liver was cut in little pieces and transferred into a 50 mL tube to which 36 mL ice-cold KH buffer was added. The liver was then homogenized with mixer. After the larger particles were allowed to settle for about 30 minutes at 5 °C, approximately 25 mL of the middle layer was transferred into a 50 mL Falcon tube using a plastic pipette. After shaking the homogenate, the homogenate was dispensed into ten 2 mL Eppendorf tubes, and stored at -35 °C until use. The protein content of the homogenate was determined to be 18.24 mg/mL using the Pierce Modified Lowry Protein Assay method. Just before use, the homogenate was diluted to a protein concentration of 0.6 mg/mL (i.e. 300 µg / 500 µl) by the addition of 29.4 mL of KH buffer to 1000 µl of the homogenate.
The kidneys (1.4143 g) were collected from four C57BL/6 mice after cervical dislocation. After cleaning and rinsing the organs using ice-cold KH buffer, the kidneys were cut in little pieces and transferred into a 50 mL tube to which 24 mL ice-cold KH buffer was added. The kidneys were then homogenized with mixer. After the larger particles were allowed to settle for about 30 minutes at 5 °C, approximately 10 mL of the middle layer was transferred into a 50 mL Falcon tube using a plastic pipette. After shaking the homogenate, the homogenate was dispensed into five 2 mL Eppendorf tubes, and stored at -35 °C until use. The protein content of the homogenate was determined to be 5.92 mg/mL using the Pierce Modified Lowry Protein Assay method. Just before use, the homogenate was diluted to a protein concentration of 0.6 mg/mL (i.e. 300 µg / 500 µl) by the addition of 8.87 mL of KH buffer to 1000 µl of the homogenate.
The colons (incl. caecum) (1.4174 g) were collected from four C57BL/6 mice after cervical dislocation. After cleaning and rinsing the organs using ice-cold KH buffer, the colons were cut in little pieces and transferred into a 15 mL tube to which 5 mL ice-cold KH buffer was added. The colons were then homogenized with mixer. After the larger particles were allowed to settle for about 30 minutes at 5 °C, approximately 2 mL of the middle layer was dispensed into a 2 mL Eppendorf tube, and stored at -35 °C until use. The protein content of the homogenate was determined to be 2.35 mg/mL using the Pierce Modified Lowry Protein Assay method. Just before use, the homogenate was diluted to a protein concentration of 0.6 mg/mL (i.e. 300 µg / 500 µl) by the addition of 2.92 mL of KH buffer to 1000 µl of the homogenate.
Fresh faeces (0.1810 g) was collected from four C57BL/6 mice. The faeces was then cut in little pieces and transferred into a 15 mL tube to which 5 mL ice-cold KH buffer was added. […] The protein content of the homogenate was determined to be 1.48 mg/mL using the Pierce Modified Lowry Protein Assay method. […]

A further series deals with CaCo‐2 monolayer. Nature of the series: in vitro. To be noted: CaCo-2 monolayer, apical-basal, 4°C, n = 6.
Source text: as §1
(§5) [picture] Supplementary Figure 5. […] Data are means ± SEM.Supplementary Figure 5

The next series in a line: in vitro. The conditions noted are these: human, Caco-2.
Source text: as §1, §5

The test system of a further series is C2C12 myoblast. Nature of the series: Viability assays other than MTT on C2C12 myoblasts. Format: cell-based, murine. To be noted: 1 µM; trypan blue, Hoechst/PI, LDH release, Bax/Bcl2, Apotox assay. A general note: LDH leaks from cells whose membrane has failed.
The subject of a further series is C. elegans. To be noted: adult worms treated once with 1 µM; n = 341, 5 independent experiments. An excerpt:
Data presented are means ± SEM. * P < 0.05; ** P < 0.01 and *** P < 0.001; Welch’s 2-sided t-test with placebo as reference.DACBSupplementary Figure 2

Entries after “also recorded” stand apart in the source; their conditions may differ. Where two headings read alike, the source gives them in different places. Ends that are not written are not given here.

As for SIFTLVA, the fragment found result in the series “liver homogenate” is “FTLVA, major”; in “muscle homogenate”, “SIFTL, major”; in the series “kidney homogenate”, “SIFT, major; also recorded: SIFTL, major”; in the series “faeces homogenate” it was “SIF, major”; in series [1] it was “SIFTL, major”.
With SIFTLVA [iAM373], the estimated plasma concentration in iAM373-positive older residents is 453 pM. Moreover, in series [2], the “presence in blood circulation after oral gavage of iAM373-producing E. coli” value is “detected in the blood circulation”. Also, the IC50 (usually the point on the concentration scale where inhibition reaches its midpoint) in the series on human myotubes was 5.4 nM. In addition, 13 nM corresponded to half-maximal inhibition in the series with C2C12 myotubes (IC50). In the series on C2C12 myoblasts, the IC50 was 61 nM. In the series on human myoblasts (Human myoblasts, MTT dose-response curve), this substance came in with an IC50 of 180 nM. The IC90 (usually the concentration at which the effect reaches the 90% level) in the series with human myoblasts (human myoblasts, MTT) is 930 nM. Further, in [3] (murine colon homogenate), the “Main metabolite at approx. T1/2” value was “SIFTL (180 min)”. Besides, the “Main metabolite at approx. T1/2” value in [3] (murine faeces homogenate) is on record as “SIF (60 min)”. The “Main metabolite at approx. T1/2” value in series [3] (murine kidney homogenate) is reported as “SIFT (30 min) SIFTL (30 min)”. For the same substance, the “Main metabolite at approx. T1/2” value in series [3] (murine liver homogenate) was “FTLVA (180 min)”. Besides, in series [3] (murine muscle homogenate), the “Main metabolite at approx. T1/2” value is “SIFTL (180 min)”. Besides, the “apical‐basal permeability coefficient (Papp)” value in the series on CaCo‐2 monolayer is recorded as 0.87×10^–7 cm/s. Also, the Papp A→B (usually the apparent permeability from the apical to the basolateral side of a cell layer) in “in vitro” was 0.14 ×10⁻⁶ cm/s. For the same substance, the “cytotoxic or cytostatic effect in viability assays other than MTT” value in the series with C2C12 myoblast is “did not show a clear cytotoxic or cytostatic effect”. For the same substance, the “effect on survival of C. elegans” value in the series with C. elegans is recorded as “without a clear effect on survival”.
